# Experimental data taken from patent publication US10597388B2, “Pyridazinone herbicides” (FMC CORPORATION, priority 2014, dated 2020).
# Experiments:
# Experiment in all cases: Test E greenhouse herbicide test, pre- and postemergence
# Assay type in all cases: in vivo
# Details in all cases: Preemergence
# [1] = tested on: lambsquarters (Chenopodium album)
# From the text: (§1) Seeds of plant species selected from corn (Zea mays), soybean (Glycine max), velvetleaf (Abutilon theophrasti), lambsquarters (Chenopodium album), wild poinsettia (Euphorbia heterophylla), pigweed, palmer (palmer pigweed, Amaranthus palmeri), waterhemp (common waterhemp, Amaranthus rudis), surinam grass (Brachiaria decumbens), crabgrass, large (large crabgrass, Digitaria sanguinalis), crabgrass, Brazilian (Brazilian crabgrass, Digitaria horizontalis), panicum, fall (fall panicum, Panicum dichotomiflorum), foxtail, giant (giant foxtail, Setaria faberii), foxtail, green (green foxtail, Setaria viridis), goosegrass (Eleusine indica), johnsongrass (Sorghum halepense), ragweed (common ragweed, Ambrosia elatior), barnyardgrass (Echinochloa crus-galli), sandbur (southem sandbur, Cenchrus echinatus), arrowleaf sida (Sida rhombifolia), Italian ryegrass (Lolium multiflorum), dayflower (Virginia (VA) dayflower, Commelina virginica), field bindweed (Convolvulus arvensis), momingglory (Ipomoea coccinea), nightshade (eastern black nightshade, Solanum ptycanthum), kochia (Kochia scoparia), nutsedge, yellow (yellow nutsedge, Cyperus esculentus), horseweed (Conyza canadensis), and beggarticks (hairy beggarticks, Bidens pilosa), were planted into a silt loam soil and treated preemergence with test chemicals formulated in a non-phytotoxic solvent mixture which included a surfactant.
# (§2) At the same time, plants from these crop and weed species and also waterhemp_RES1, (ALS & Triazine resistant common waterhemp, Amaranthus rudis), and waterhemp_RES2, (ALS & HPPD resistant common waterhemp, Amaranthus rudis) were planted in pots containing Redi-Earth® planting medium (Scotts Company, 14111 Scottslawn Road, Marysville, Ohio 43041) comprising spaghnum peat moss, vermiculite, wetting agent and starter nutrients were treated with postemergence applications of test chemicals formulated in the same manner. Plants ranged in height from 2 to 18 cm for postemergence treatments (1- to 4-leaf stage). Treated plants and controls were maintained in a greenhouse for 14 to 21 d, after which time all species were compared to controls and visually evaluated. Plant response ratings, summarized in Table E, are based on a scale of 0 to 100 where 0 is no effect and 100 is complete control. A dash (-) response means no test result.
# [2] = tested on: surinam grass (Brachiaria decumbens)
# From the text: as §1, §2
# [3] = tested on: arrowleaf sida (Sida rhombifolia)
# From the text: as §1, §2
# [4] = tested on: barnyardgrass (Echinochloa crus-galli)
# From the text: as §1, §2
# [5] = tested on: crabgrass, large (large crabgrass, Digitaria sanguinalis)
# From the text: as §1, §2
# [6] = tested on: foxtail, green (green foxtail, Setaria viridis)
# From the text: as §1, §2
# [7] = tested on: kochia (Kochia scoparia)
# From the text: as §1, §2
# [8] = tested on: goosegrass (Eleusine indica)
# From the text: as §1, §2
# [9] = tested on: Italian ryegrass (Lolium multiflorum)
# From the text: as §1, §2
# [10] = tested on: foxtail, giant (giant foxtail, Setaria faberii)
# From the text: as §1, §2
# [11] = tested on: sandbur (southem sandbur, Cenchrus echinatus)
# From the text: as §1, §2
# [12] = tested on: velvetleaf (Abutilon theophrasti)
# From the text: as §1, §2
# [13] = tested on: corn (Zea mays)
# From the text: as §1, §2
# [14] = tested on: panicum, fall (fall panicum, Panicum dichotomiflorum)
# From the text: as §1, §2
# [15] = tested on: horseweed (Conyza canadensis)
# From the text: as §1, §2
# [16] = tested on: crabgrass, Brazilian (Brazilian crabgrass, Digitaria horizontalis)
# From the text: as §1, §2
# [17] = 62 g ai/ha, scale 0 to 100 (0 no effect, 100 complete control)
# [18] = 31 g ai/ha, scale 0 to 100, 0 no effect, 100 complete control
# [19] = 125 g ai/ha, visual, scale 0 no effect to 100 complete control
# [20] = 250 g ai/ha, visual, scale 0 no effect to 100 complete control
# [21] = 125 g ai/ha, scale 0 to 100 (0 no effect, 100 complete control)
structure (smiles),measurement,setting,value
Cc1ccc2ccccc2c1-c1c(O)c(C)nn(C)c1=O [Compound 59],"Plant response rating, Lambsquarters",[1]; [17],100
same,"Plant response rating, Lambsquarters",[1]; [18],100
same,"Plant response rating, Lambsquarters",[1]; [19],100
same,"Plant response rating, Lambsquarters",[1]; [20],100
same,"Plant response rating, Surinam Grass",[2]; [17],90
same,"Plant response rating, Surinam Grass",[2]; [21],100
same,"Plant response rating, Surinam Grass",[2]; [18],85
same,"Plant response rating, Surinam Grass",[2]; [20],100
same,"Plant response rating, Arrowleaf Sida",[3]; [17],95
same,"Plant response rating, Arrowleaf Sida",[3]; [18],80
same,"Plant response rating, Arrowleaf Sida",[3]; [19],98
same,"Plant response rating, Arrowleaf Sida",[3]; [20],98
same,"Plant response rating, Barnyardgrass",[4]; [17],25
same,"Plant response rating, Barnyardgrass",[4]; [18],0
same,"Plant response rating, Barnyardgrass",[4]; [19],60
same,"Plant response rating, Barnyardgrass",[4]; [20],90
same,"Plant response rating, Crabgrass, Large",[5]; [17],50
same,"Plant response rating, Crabgrass, Large",[5]; [18],0
same,"Plant response rating, Crabgrass, Large",[5]; [19],80
same,"Plant response rating, Crabgrass, Large",[5]; [20],95
same,"Plant response rating, Foxtail, Green",[6]; [17],90
same,"Plant response rating, Foxtail, Green",[6]; [18],65
same,"Plant response rating, Foxtail, Green",[6]; [19],95
same,"Plant response rating, Foxtail, Green",[6]; [20],100
same,"Plant response rating, Kochia",[7]; [17],90
same,"Plant response rating, Kochia",[7]; [18],80
same,"Plant response rating, Kochia",[7]; [19],100
same,"Plant response rating, Kochia",[7]; [20],100
same,"Plant response rating, Goosegrass",[8]; [17],95
same,"Plant response rating, Goosegrass",[8]; [18],90
same,"Plant response rating, Goosegrass",[8]; [19],98
same,"Plant response rating, Goosegrass",[8]; [20],98
same,"Plant response rating, Ryegrass, Italian",[9]; [17],100
same,"Plant response rating, Ryegrass, Italian",[9]; [21],100
same,"Plant response rating, Ryegrass, Italian",[9]; [18],100
same,"Plant response rating, Ryegrass, Italian",[9]; [20],100
same,"Plant response rating, Foxtail, Giant",[10]; [17],95
same,"Plant response rating, Foxtail, Giant",[10]; [18],85
same,"Plant response rating, Foxtail, Giant",[10]; [19],98
same,"Plant response rating, Foxtail, Giant",[10]; [20],100
same,"Plant response rating, Sandbur",[11]; [17],70
same,"Plant response rating, Sandbur",[11]; [21],90
same,"Plant response rating, Sandbur",[11]; [18],70
same,"Plant response rating, Sandbur",[11]; [20],90
same,"Plant response rating, Velvetleaf",[12]; [17],95
same,"Plant response rating, Velvetleaf",[12]; [21],95
same,"Plant response rating, Velvetleaf",[12]; [18],90
same,"Plant response rating, Velvetleaf",[12]; [20],98
same,"Plant response rating, Corn",[13]; [17],0
same,"Plant response rating, Corn",[13]; [18],0
same,"Plant response rating, Corn",[13]; [19],0
same,"Plant response rating, Corn",[13]; [20],20
same,"Plant response rating, Panicum, Fall",[14]; [17],98
same,"Plant response rating, Panicum, Fall",[14]; [21],100
same,"Plant response rating, Panicum, Fall",[14]; [18],95
same,"Plant response rating, Panicum, Fall",[14]; [20],100
same,"Plant response rating, Horseweed",[15]; [17],100
same,"Plant response rating, Horseweed",[15]; [18],100
same,"Plant response rating, Horseweed",[15]; [19],100
same,"Plant response rating, Horseweed",[15]; [20],100
same,"Plant response rating, Crabgrass, Brazil",[16]; [17],90
same,"Plant response rating, Crabgrass, Brazil",[16]; [18],60
same,"Plant response rating, Crabgrass, Brazil",[16]; [19],100
same,"Plant response rating, Crabgrass, Brazil",[16]; [20],100
